# Experimental data reported in patent US8435928B2, “Herbicidal composition” (Ishihara Sangyo Kaisha, Ltd., priority 2007, dated 2013).
# How the values were obtained:
# [1] = test system: bamyardgrass (Echinochloa crus-galli L); assay: Test Example 8: foliar application of compound No. 2-6 wettable powder with surfactant, barnyardgrass; format: in vivo; settings: 15 g a.i./ha wettable powder, 21st day
# Description: (§1) On the 21st day after the application, the state of growth of the plants was visually observed (growth inhibition rate (%)=0 (the same as the untreated plot) to 100 (complete kill)), and the results as shown in Tables b1 and b2 were obtained.
# (§2) Upland field soil was put into a 1/1,000,000 ha pot, and seeds of bamyardgrass (Echinochloa crus-galli L) and crabgrass were respectively sown and grown in a greenhouse. When barnyardgrass reached 4.0 to 4.5 leaf stage and crabgrass reached 4.0 to 5.0 leaf stage, a prescribed amount (15 g a.i./ha) of a wettable powder comprising compound No. 2-6 as an active ingredient, prepared in accordance with the above Example 1, was diluted with water corresponding to 300 L/ha (containing 0.05 vol % of a surfactant containing the POA alkyl ether phosphate), followed by foliar application. Further, for comparison, foliar application was carried out in the same manner by using SILWETT L-77 (tradename.) at a concentration of 0.1 vol % instead of the above surfactant.
# (§3) On the 21st day after the application, the state of growth of the plants was evaluated in the same manner as in Test Example 1, and the results as shown in Tables b11 and b12 were obtained.
# crabgrass [2] = assay: Test Example 8: foliar application of compound No. 2-6 wettable powder with surfactant, crabgrass; format: in vivo, Digitaria sanguinalis L.; settings: 15 g a.i./ha wettable powder, 21st day
# Description: as §1, §2, §3
# crabgrass [3] = assay: Test Example 5: foliar application of compound No. 3-31 wettable powder with surfactant, crabgrass; format: in vivo, Digitaria sanguinalis L.; settings: foliar application at 4.5 to 5.0 leaf stage, visual, 21st day, 0 = same as untreated, 100 = complete kill
# Description: as §1
# Upland field soil was put into a 1/1,000,000 ha pot, and seeds of crabgrass were sown and grown in a greenhouse. When crabgrass reached 4.5 to 5.0 leaf stage, a prescribed amount (30 g a.i./ha) of a water-based suspension concentrate comprising compound No. 238 as an active ingredient, prepared in accordance with the above Example 6, was diluted with water corresponding to 300 L/ha (containing 0.05 vol % of a surfactant containing the POA alkyl ether phosphate), followed by foliar application. Further, for comparison, foliar application was carried out in the same manner by using CITOWETT (tradename) at a concentration of 0.3 vol %, instead of the above surfactant.
# On the 21st day after the application, the state of growth of the plant was evaluated in the same manner as in Test Example 1, and the results as shown in Table b5 were obtained.
# The results as shown in Table b8 were obtained in the same manner as in the above Test Example 3 except that a prescribed amount (60 g a.i./ha) of a wettable powder comprising compound No. 3-31 as an active ingredient, prepared in accordance with the above Example 5, was used.
# barnyardgrass = assay: Test Example 13: foliar application of compound No. 5-1 wettable powder with surfactant, barnyardgrass; format: in vivo, Echinochloa crus-galli L; settings: 31 g a.i./ha wettable powder, 21st day
# Description: as §1
# as §2, with “bamyardgrass” for “bamyardgrass (Echinochloa crus-galli L) and crabgrass”, “were” for “were respectively”, “leaf” for “leaf stage and crabgrass reached 4.0 to 5.0 leaf”, “(31” for “(15”, “5-1” for “2-6”, “(tradename)” for “(tradename.)”
# On the 21st day after the application, the state of growth of the plant was evaluated in the same manner as in Test Example 1, and the results as shown in Table b18 were obtained.
# crabgrass [4] = assay: Test Example 12: foliar application of compound No. 4-320 wettable powder with surfactant, crabgrass; format: in vivo, Digitaria sanguinalis L.; settings: 15 g a.i./ha wettable powder, 21st day
# Description: as §1
# as §2, with “of” for “of bamyardgrass (Echinochloa crus-galli L) and”, “were” for “were respectively”, “When” for “When barnyardgrass reached 4.0 to 4.5 leaf stage and”, “4-3” for “2-6”, “(tradename)” for “(tradename.)”
# On the 21st day after the application, the state of growth of the plant was evaluated in the same manner as in Test Example 1, and the results as shown in Table b16 were obtained.
# The results as shown in Tables b17 were obtained in the same manner as in the above Test Example 11 except that a prescribed amount (15 g a.i./ha) of a wettable powder comprising compound No. 4-320 as an active ingredient, prepared in accordance with the above Example 1, was used.
# [5] = test system: bamyardgrass (Echinochloa crus-galli L); assay: Test Example 10: foliar application of compound No. 2-185 wettable powder with surfactant, barnyardgrass; format: in vivo; settings: 15 g a.i./ha wettable powder, 21st day
# Description: as §1, §2
# On the 21st day after the application, the state of growth of the plants was evaluated in the same manner as in Test Example 1, and the results as shown in Tables b11 and b12 were obtained. […]
# crabgrass [6] = assay: Test Example 10: foliar application of compound No. 2-185 wettable powder with surfactant, crabgrass; format: in vivo, Digitaria sanguinalis L.; settings: 15 g a.i./ha wettable powder, 21st day
# Description: as §1, §2, §3
# The results as shown in Tables b14 and b15 were obtained in the same manner as in the above Test Example 8 except that a prescribed amount (15 g a.i./ha) of a wettable powder comprising compound No. 2-185 as an active ingredient, prepared in accordance with the above Example 1, was used.
# [7] = surfactant PHOSPHOLAN PS-236 0.05 vol %, present invention
# [8] = surfactant SILWETT L-77 0.1 vol %, comparison
# [9] = surfactant ADECA COL PS-440E 0.05 vol %, present invention
# [10] = surfactant NIKKOL DDP-8 0.05 vol %, present invention
# [11] = surfactant NIKKOL TDP-8 0.05 vol %, present invention
# [12] = surfactant PHOSPHANOL ML-240 0.05 vol %, present invention
# [13] = surfactant PHOSPHANOL RS-710 0.05 vol %, present invention
# [14] = surfactant PLYSURF A219B 0.05 vol %, present invention
smiles,measurement,setting,value
CCn1ncc(C(=O)c2ccc(S(C)(=O)=O)c(OCCOC)c2C)c1O [2-6],Growth inhibition rate (%) of barnyardgrass,[1]; [7],95%
same,Growth inhibition rate (%) of barnyardgrass,[1]; [8],10%
same,Growth inhibition rate (%) of crabgrass,crabgrass [2]; [9],75%
same,Growth inhibition rate (%) of crabgrass,crabgrass [2]; [10],70%
same,Growth inhibition rate (%) of crabgrass,crabgrass [2]; [11],73%
same,Growth inhibition rate (%) of crabgrass,crabgrass [2]; [12],85%
same,Growth inhibition rate (%) of crabgrass,crabgrass [2]; [13],70%
same,Growth inhibition rate (%) of crabgrass,crabgrass [2]; [14],78%
same,Growth inhibition rate (%) of crabgrass,crabgrass [2]; [8],40%
CS(=O)(=O)c1ccc(C(=O)C2C(=O)CCCC2=O)c(Cl)c1COCC(F)(F)F [Compound No. 3-31],Growth inhibition rate (%) of crabgrass,crabgrass [3]; comparison: 60 g a.i./ha wettable powder in 300 L/ha water with surfactant CITOWETT 0.3 vol %,20%
same,Growth inhibition rate (%) of crabgrass,crabgrass [3]; the present invention: 60 g a.i./ha wettable powder in 300 L/ha water with surfactant NIKKOL DDP-8 0.05 vol %,80%
COCCOCc1nc(C(F)(F)F)ccc1C(=O)C1C(=O)C2CCC(C2)C1=O (stereo not drawn) [5-1],Growth inhibition rate (%) of barnyardgrass,barnyardgrass; [9],85%
same,Growth inhibition rate (%) of barnyardgrass,barnyardgrass; [8],70%
"CCn1ncc(C(=O)c2ccc(S(C)(=O)=O)c(OCCOC)c2C)c1OC(C)OC(=O)OC (stereo not drawn) [Compound No. 4-320, 1-(1-ethyl-4-(3-(2-methoxyethoxy)-2-methyl-4-(methylsulfonyl)benzoyl)-1H-pyrazol-5-yloxy)ethyl methyl carbonate]",Growth inhibition rate (%) of crabgrass,crabgrass [4]; [10],90%
same,Growth inhibition rate (%) of crabgrass,crabgrass [4]; [7],90%
same,Growth inhibition rate (%) of crabgrass,crabgrass [4]; [8],88%
COCc1c(S(C)(=O)=O)ccc(C(=O)c2cnn(C)c2O)c1C [2-185],Growth inhibition rate (%) of barnyardgrass,[5]; [7],80%
same,Growth inhibition rate (%) of barnyardgrass,[5]; [8],0%
same,Growth inhibition rate (%) of crabgrass,crabgrass [6]; [10],70%
same,Growth inhibition rate (%) of crabgrass,crabgrass [6]; [11],70%
same,Growth inhibition rate (%) of crabgrass,crabgrass [6]; [12],70%
same,Growth inhibition rate (%) of crabgrass,crabgrass [6]; [13],73%
same,Growth inhibition rate (%) of crabgrass,crabgrass [6]; [14],70%
same,Growth inhibition rate (%) of crabgrass,crabgrass [6]; [8],20%
